Measured values from patent publication US20100267561A1, “HERBICIDAL PYRIDAZINONE DERIVATIVES” (priority 2007, published 2010).
Read-outs that look alike come from different tables or passages of the source.

What was measured:
Assay type in all cases: in vivo
[1] = system: johnsongrass (Sorghum halepense); experiment: Test B pre-/postemergence plant response; settings: for Johnsongrass plant response rating: 8 g ai/ha; for pest or weed control at 16 g/ha / pest or weed control at 31 g/ha / pest or weed control at 62 g/ha: Sorghum halepense, read-out: Plant response rating, Johnsongrass; for pest or weed control at 16 g/ha: 16 g ai/ha; for pest or weed control at 31 g/ha: 31 g ai/ha; for pest or weed control at 62 g/ha: 62 g ai/ha
How it was run: (§1)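 Preemergence and postemergence (plants 2-18 cm, 1- to 4-leaf stage) applications used test chemicals in a non-phytotoxic solvent with surfactant. Plants were held in a greenhouse 13 to 15 days, then rated visually against controls on a 0-100 scale (0 no effect, 100 complete control).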

[2] = system: downy bromegrass (Bromus tectorum); experiment: Test B pre-/postemergence plant response; settings: for Bromegrass, Downy plant response rating: 8 g ai/ha; for pest or weed control at 16 g/ha / pest or weed control at 31 g/ha / pest or weed control at 62 g/ha: Bromus tectorum, read-out: Plant response rating, Bromegrass, Downy; for pest or weed control at 16 g/ha: 16 g ai/ha; for pest or weed control at 31 g/ha: 31 g ai/ha; for pest or weed control at 62 g/ha: 62 g ai/ha
How it was run: as §1

[3] = system: common ragweed (Ambrosia elation); experiment: Test B pre-/postemergence plant response; settings: for Ragweed plant response rating: 8 g ai/ha; for pest or weed control at 16 g/ha / pest or weed control at 31 g/ha / pest or weed control at 62 g/ha: Ambrosia, read-out: Plant response rating, Ragweed; for pest or weed control at 16 g/ha: 16 g ai/ha; for pest or weed control at 31 g/ha: 31 g ai/ha; for pest or weed control at 62 g/ha: 62 g ai/ha
How it was run: as §1

[4] = system: eastern black (E.B.) nightshade (Solanum ptycanthum); experiment: Test B pre-/postemergence plant response; settings: Preemergence
How it was run: as §1

[5] = system: catchweed bedstraw (Galium aparine); experiment: Test B pre-/postemergence plant response; settings: Preemergence
How it was run: as §1

[6] = system: large crabgrass (Digitaria sanguinalis); experiment: Test B pre-/postemergence plant response; settings: for Crabgrass, Large plant response rating: 8 g ai/ha; for pest or weed control at 16 g/ha / pest or weed control at 31 g/ha / pest or weed control at 62 g/ha: Digitaria sanguinalis, read-out: Plant response rating, Crabgrass, Large; for pest or weed control at 16 g/ha: 16 g ai/ha; for pest or weed control at 31 g/ha: 31 g ai/ha; for pest or weed control at 62 g/ha: 62 g ai/ha
How it was run: as §1

[7] = system: Italian ryegrass (Lolium multiflorum); experiment: Test B pre-/postemergence plant response; settings: for Ryegrass, Italian plant response rating: 8 g ai/ha; for pest or weed control at 16 g/ha / pest or weed control at 31 g/ha / pest or weed control at 62 g/ha: Lolium multiflorum, read-out: Plant response rating, Ryegrass, Italian; for pest or weed control at 16 g/ha: 16 g ai/ha; for pest or weed control at 31 g/ha: 31 g ai/ha; for pest or weed control at 62 g/ha: 62 g ai/ha
How it was run: as §1

[8] = system: morningglory (Ipomoea coccinea); experiment: Test B pre-/postemergence plant response; settings: for Morningglory plant response rating: 8 g ai/ha; for pest or weed control at 16 g/ha / pest or weed control at 31 g/ha / pest or weed control at 62 g/ha: Ipomoea, read-out: Plant response rating, Morningglory; for pest or weed control at 16 g/ha: 16 g ai/ha; for pest or weed control at 31 g/ha: 31 g ai/ha; for pest or weed control at 62 g/ha: 62 g ai/ha
How it was run: as §1

wild oat (Avena fatua) = experiment: Test B pre-/postemergence plant response; settings: for pest or weed control at 16 g/ha / pest or weed control at 31 g/ha / pest or weed control at 62 g/ha: Avena fatua, read-out: Plant response rating, Oat, Wild; for pest or weed control at 16 g/ha: 16 g ai/ha; for pest or weed control at 31 g/ha: 31 g ai/ha; for pest or weed control at 62 g/ha: 62 g ai/ha
How it was run: as §1

[9] = system: pigweed (Amaranthus retroflexus); experiment: Test B pre-/postemergence plant response; settings: for Pigweed plant response rating: 8 g ai/ha; for pest or weed control at 16 g/ha / pest or weed control at 31 g/ha / pest or weed control at 62 g/ha: Amaranthus retroflexus, read-out: Plant response rating, Pigweed; for pest or weed control at 16 g/ha: 16 g ai/ha; for pest or weed control at 31 g/ha: 31 g ai/ha; for pest or weed control at 62 g/ha: 62 g ai/ha
How it was run: as §1

[10] = system: blackgrass (Alopecurus myosuroides); experiment: Test B pre-/postemergence plant response; settings: for pest or weed control at 31 g/ha: 31 g ai/ha; for pest or weed control at 62 g/ha: 62 g ai/ha
How it was run: as §1

[11] = system: common (oilseed) sunflower (Helianthus annuus); experiment: Test B pre-/postemergence plant response; settings: Preemergence
How it was run: as §1

rice (Oryza sativa) = experiment: Test B flooded paddy test plant response; settings: Oryza sativa, read-out: Plant response rating, Rice
How it was run: (§2)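 2-leaf plants; pots flooded 3 cm above soil; compound added to paddy water; depth maintained. Greenhouse 13–15 d. Visual rating vs controls, 0 (no effect) to 100 (complete control); dash = no result.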

[12] = system: barnyardgrass (Echinochloa crus-galli); experiment: Test B flooded paddy test plant response; settings: Echinochloa crus-galli, read-out: Plant response rating, Barnyardgrass
How it was run: as §2

[13] = post-emergence, Postemergence, scale 0 to 100
[14] = post-emergence, Postemergence, scale 0 to 100, 0 no effect, 100 complete control
[15] = pre-emergence, Preemergence, scale 0 to 100 (0 no effect, 100 complete control)
[16] = pre-emergence, Preemergence, 0 to 100 scale, 0 no effect, 100 complete control
[17] = pre-emergence, Preemergence, scale 0 to 100
[18] = 8 g ai/ha, postemergence, 0-100 scale
[19] = Alopecurus myosuroides, post-emergence, Postemergence, scale 0 to 100, 0 no effect, 100 complete control, read-out: Plant response rating, Blackgrass
[20] = Flood (flooded paddy test), 62 g ai/ha, scale 0 to 100, 0 no effect, 100 complete control
[21] = Flood (flooded paddy test), 125 g ai/ha, scale 0 to 100, 0 no effect, 100 complete control
[22] = Flood (flooded paddy test), 250 g ai/ha, scale 0 to 100, 0 no effect, 100 complete control
[23] = Flood, 31 g ai/ha, scale 0 to 100

CCc1c(C)c(-c2ccc(Cl)cc2)nn1-c1c(O)cnn(C)c1=O [Compound 26, 4-[3-(4-chlorophenyl)-5-ethyl-4-methyl-1H-pyrazol-1-yl]-5-hydroxy-2-methyl-3(2H)-pyridazinone]
Johnsongrass plant response rating ([1]; postemergence, 0-100 scale): 0
Johnsongrass plant response rating ([1]; Preemergence, scale 0 to 100): 0
pest or weed control at 16 g/ha [1, 13]: 0%
pest or weed control at 31 g/ha [1, 14]: 20%
pest or weed control at 62 g/ha [1, 14]: 20%
pest or weed control at 16 g/ha [1, 15]: 0%
pest or weed control at 31 g/ha [1, 16]: 0%
pest or weed control at 62 g/ha [1, 17]: 50%
Bromegrass, Downy plant response rating ([2]; postemergence, 0-100 scale): 0
pest or weed control at 16 g/ha [2, 13]: 10%
pest or weed control at 31 g/ha [2, 14]: 30%
pest or weed control at 62 g/ha [2, 14]: 60%
pest or weed control at 16 g/ha [2, 15]: 0%
pest or weed control at 31 g/ha [2, 16]: 10%
pest or weed control at 62 g/ha [2, 17]: 65%
Bromegrass, Downy plant response rating ([2]; Preemergence, scale 0 to 100): 0
Ragweed plant response rating ([3]; postemergence, 0-100 scale): 0
pest or weed control at 16 g/ha [3, 13]: 0%
pest or weed control at 31 g/ha [3, 14]: 0%
pest or weed control at 62 g/ha [3, 14]: 0%
pest or weed control at 16 g/ha [3, 15]: 0%
pest or weed control at 31 g/ha [3, 16]: 0%
pest or weed control at 62 g/ha [3, 17]: 0%
Ragweed plant response rating ([3]; Preemergence, scale 0 to 100): 0
Nightshade, E. B. plant response rating ([4]; 8 g ai/ha, scale 0 to 100): 0
pest or weed control at 16 g/ha ([4]; Solanum, pre-emergence, 16 g ai/ha, scale 0 to 100 (0 no effect, 100 complete control), read-out: Plant response rating, Nightshade, E. B.): 0%
pest or weed control at 31 g/ha ([4]; Solanum, pre-emergence, 31 g ai/ha, 0 to 100 scale, 0 no effect, 100 complete control, read-out: Plant response rating, Nightshade, E. B.): 0%
pest or weed control at 62 g/ha ([4]; Solanum, pre-emergence, 62 g ai/ha, scale 0 to 100, read-out: Plant response rating, Nightshade, E. B.): 0%
pest or weed control at 16 g/ha ([5]; Galium aparine, pre-emergence, 16 g ai/ha, scale 0 to 100 (0 no effect, 100 complete control), read-out: Plant response rating, Galium): 0%
pest or weed control at 31 g/ha ([5]; Galium aparine, pre-emergence, 31 g ai/ha, 0 to 100 scale, 0 no effect, 100 complete control, read-out: Plant response rating, Galium): 0%
pest or weed control at 62 g/ha ([5]; Galium aparine, pre-emergence, 62 g ai/ha, scale 0 to 100, read-out: Plant response rating, Galium): 0%
Galium plant response rating ([5]; 8 g ai/ha, scale 0 to 100): 0
Crabgrass, Large plant response rating ([6]; postemergence, 0-100 scale): 45
pest or weed control at 16 g/ha [6, 13]: 60%
pest or weed control at 31 g/ha [6, 14]: 80%
pest or weed control at 62 g/ha [6, 14]: 80%
pest or weed control at 16 g/ha [6, 15]: 65%
pest or weed control at 31 g/ha [6, 16]: 70%
pest or weed control at 62 g/ha [6, 17]: 95%
Crabgrass, Large plant response rating ([6]; Preemergence, scale 0 to 100): 0
Ryegrass, Italian plant response rating ([7]; postemergence, 0-100 scale): 70
pest or weed control at 16 g/ha [7, 13]: 85%
pest or weed control at 31 g/ha [7, 14]: 85%
pest or weed control at 62 g/ha [7, 14]: 100%
pest or weed control at 16 g/ha [7, 15]: 90%
pest or weed control at 31 g/ha [7, 16]: 100%
pest or weed control at 62 g/ha [7, 17]: 100%
Ryegrass, Italian plant response rating ([7]; Preemergence, scale 0 to 100): 50
Morningglory plant response rating ([8]; postemergence, 0-100 scale): 0
pest or weed control at 16 g/ha [8, 13]: 0%
pest or weed control at 31 g/ha [8, 14]: 0%
pest or weed control at 62 g/ha [8, 14]: 0%
pest or weed control at 16 g/ha [8, 15]: 0%
pest or weed control at 31 g/ha [8, 16]: 0%
pest or weed control at 62 g/ha [8, 17]: 0%
Morningglory plant response rating ([8]; Preemergence, scale 0 to 100): 0
Oat, Wild plant response rating (wild oat (Avena fatua); [18]): 85
pest or weed control at 16 g/ha (wild oat (Avena fatua); [13]): 90%
pest or weed control at 31 g/ha (wild oat (Avena fatua); [14]): 90%
pest or weed control at 62 g/ha (wild oat (Avena fatua); [14]): 100%
pest or weed control at 16 g/ha (wild oat (Avena fatua); [15]): 80%
pest or weed control at 31 g/ha (wild oat (Avena fatua); [16]): 85%
pest or weed control at 62 g/ha (wild oat (Avena fatua); [17]): 85%
Pigweed plant response rating ([9]; postemergence, 0-100 scale): 0
pest or weed control at 16 g/ha [9, 13]: 0%
pest or weed control at 31 g/ha [9, 14]: 0%
pest or weed control at 62 g/ha [9, 14]: 0%
pest or weed control at 16 g/ha [9, 15]: 0%
pest or weed control at 31 g/ha [9, 16]: 0%
pest or weed control at 62 g/ha [9, 17]: 0%
Pigweed plant response rating ([9]; Preemergence, scale 0 to 100): 0
Blackgrass plant response rating [10, 18]: 0
pest or weed control at 16 g/ha ([10]; Alopecurus myosuroides, post-emergence, Postemergence, 16 g ai/ha, scale 0 to 100, read-out: Plant response rating, Blackgrass): 50%
pest or weed control at 31 g/ha [10, 19]: 80%
pest or weed control at 62 g/ha [10, 19]: 80%
pest or weed control at 31 g/ha ([10]; Alopecurus myosuroides, pre-emergence, Preemergence, 0 to 100 scale, 0 no effect, 100 complete control, read-out: Plant response rating, Blackgrass): 85%
pest or weed control at 62 g/ha ([10]; Alopecurus myosuroides, pre-emergence, Preemergence, scale 0 to 100, read-out: Plant response rating, Blackgrass): 100%
pest or weed control at 16 g/ha ([11]; Helianthus annuus, pre-emergence, 16 g ai/ha, scale 0 to 100 (0 no effect, 100 complete control), read-out: Plant response rating, Sunflower): 0%
pest or weed control at 31 g/ha ([11]; Helianthus annuus, pre-emergence, 31 g ai/ha, 0 to 100 scale, 0 no effect, 100 complete control, read-out: Plant response rating, Sunflower): 0%
pest or weed control at 62 g/ha ([11]; Helianthus annuus, pre-emergence, 62 g ai/ha, scale 0 to 100, read-out: Plant response rating, Sunflower): 0%
Sunflower plant response rating ([11]; 8 g ai/ha, scale 0 to 100): 0
plant injury at 62 g/ha (rice (Oryza sativa); [20]): 0%
plant injury at 125 g/ha (rice (Oryza sativa); [21]): 0%
plant injury at 250 g/ha (rice (Oryza sativa); [22]): 0%
plant injury at 31 g/ha (rice (Oryza sativa); [23]): 0%
pest or weed control at 62 g/ha [12, 20]: 0%
pest or weed control at 125 g/ha [12, 21]: 0%
pest or weed control at 250 g/ha [12, 22]: 20%
pest or weed control at 31 g/ha [12, 23]: 0%
